Molecular target: T1, albumin (Homo sapiens, UniProt P02768)
Experiment: pH dependence of binding affinity for albumin
Conditions: pH above about 3
From the text: Adjusting the pH of the fluids to the acidic and/or basic range makes it possible to selectively influence the binding of different substances to the respective carrier proteins or adsorbers. […] For example, the binding of copper ions to albumin can be weakened in this way so that free, dissolved copper ions in the following filter can be removed by dialysis, filtration, diafiltration, centrifugation, a field, or sorting by weight difference. Analogously, the pH of the fluid can be adjusted to the basic range so that the toxins liberated in the alkaline range can then be eliminated from the fluid by dialysis, filtration or diafiltration. […] A pH range of 8-13 is often preferred.
Devices for adjusting the pH include especially devices for adding acid or base, for example metering pumps. Appropriate acids or bases arc aqueous solutions of biologically compatible acids or bases. It is generally preferable to use acids or bases whose conjugate bases or acids are ions that occur naturally in the human organism. Examples of acids which can be used are hydrochloric acid, sulfuric acid or acetic acid, hydrochloric acid being preferred. Examples of bases which can be used are sodium hydroxide solution or potassium hydroxide solution, sodium hydroxide solution being preferred. […]

T1 sequence (P02768 25-609): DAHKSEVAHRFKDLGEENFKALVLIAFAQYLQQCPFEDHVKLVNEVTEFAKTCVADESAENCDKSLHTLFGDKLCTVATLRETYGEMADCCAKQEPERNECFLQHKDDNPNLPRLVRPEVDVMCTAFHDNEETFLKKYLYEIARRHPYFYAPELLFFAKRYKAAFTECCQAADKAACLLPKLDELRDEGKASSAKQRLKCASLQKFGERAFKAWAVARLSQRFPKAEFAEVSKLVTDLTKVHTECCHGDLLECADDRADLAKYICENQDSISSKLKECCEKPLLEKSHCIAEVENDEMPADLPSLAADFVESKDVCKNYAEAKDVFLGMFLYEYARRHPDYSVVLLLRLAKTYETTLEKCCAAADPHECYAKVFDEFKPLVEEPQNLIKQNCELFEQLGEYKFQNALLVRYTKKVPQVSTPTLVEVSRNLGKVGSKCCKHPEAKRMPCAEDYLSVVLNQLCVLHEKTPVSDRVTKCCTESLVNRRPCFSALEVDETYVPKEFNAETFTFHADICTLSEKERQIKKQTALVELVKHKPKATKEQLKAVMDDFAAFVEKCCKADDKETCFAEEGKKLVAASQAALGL

Row | Compound | binding affinity for albumin
1 | Copper(II) | particularly high binding affinity

Same assay, conditions: pH range around 2

Row | Compound | binding affinity for albumin
2 | Copper(II) | significantly lowered

Molecular target: T1, albumin
Experiment: not given
Conditions: binding to albumin; reported association constants; cited from earlier work

Row | Compound | Association constant, KA
3 | [Zn+2] [Zinc(II)] | 3.4e+07 M⁻¹
4 | C[C@]12CCC(=O)C=C1CC[C@@H]1[C@@H]2[C@@H](O)C[C@]2(C=O)[C@@H](C(=O)CO)CC[C@@H]12 [Aldosterone] | 3200 M⁻¹
5 | [Ca+2] [Calcium] | 1510 M⁻¹
6 | C[C@]12CCC(=O)C=C1CC[C@@H]1[C@@H]2[C@@H](O)C[C@@]2(C)[C@H]1CC[C@]2(O)C(=O)CO [Cortisol] | 5000 M⁻¹
7 | C=CC1=C(C)c2cc3[n-]c(cc4[n-]c(cc5nc(cc1n2)C(C)=C5C=C)c(C)c4CCC(=O)O)c(CCC(=O)O)c3C.O.[Fe+2] [Hematin] | 1.1e+08 M⁻¹
8 | N[C@@H](Cc1c[nH]c2ccccc12)C(=O)O [L-tryptophan] | 10000 M⁻¹
9 | C[C@]12CC[C@H]3[C@@H](CCC4=CC(=O)CC[C@@]43C)[C@@H]1CC[C@@H]2O [Testosterone] | 24000 M⁻¹
10 | Copper(II) | 1.5e+16 M⁻¹
11 | [Mg+2] [Magnesium] | 100 M⁻¹
12 | CC(=O)[C@H]1CC[C@H]2[C@@H]3CCC4=CC(=O)CC[C@]4(C)[C@H]3CC[C@]12C [Progesterone] | 360000 M⁻¹
13 | C=C1CC[C@H](O)C/C1=C/C=C1\CCC[C@]2(C)[C@@H]([C@H](C)CCCC(C)(C)O)CC[C@@H]12 [25,OH—VitaminD3] | 600000 M⁻¹
14 | C/C1=C2N=C(/C=C3N=C(/C(C)=C4\[N-]C(C(CC(N)=O)C4(C)CCC(=O)NCC(C)OP(=O)([O-])OC4C(CO)OC(n5cnc6cc(C)c(C)cc65)C4O)C4(C)N=C1C(CCC(N)=O)C4(C)CC(N)=O)C(CCC(N)=O)C\3(C)C)C(CCC(N)=O)C/2(C)CC(N)=O.O.[Co+3].[OH-] (centres unmarked) [Aquocobalamin] | 2e+07 M⁻¹
15 | t-25-(OH)2—Vitamin D3 | 50000 M⁻¹
16 | CCCCC[C@H](O)/C=C/[C@H]1[C@H](O)CC(=O)[C@@H]1CCCCCCC(=O)O [Eicosanoids (PGE1), PGE1] | 70000 M⁻¹
17 | Cl [Chloride] | 720 M⁻¹

Source: patent publication US11351291B2, “Systems or apparatuses and methods for performing dialysis” (ADVITOS GMBH, priority 2016, dated 2022)
